From patent publication US5488055A, “Substituted N-cycloalkylmethyl-1H-pyrazolo(3,4-b)quinolin-4 amines and compositions and methods of use thereof” (Sanofi Winthrop Inc., priority 1995, dated 1996)
Read-outs that look alike come from different tables or passages of the source. Values belong to the molecule of their own block, whether it stands above or below them.

Experiments:
[1] = system: Spontaneously hypertensive rats (SHR); experiment: Antihypertensive activity in spontaneously hypertensive rats, iv; assay type: in vivo, rat
Procedure: After a 2 day recovery from surgery, three baseline blood pressure measurements were made at 5 min intervals in conscious SHR. Compounds to be tested or vehicle were then administered intravenously in a dose-dependent manner (0.3-10 mg base/kg) while arterial pressure was recorded continuously on a polygraph. The mean arterial pressure response was measured 5 minutes after the administration of each dose of the test compound and the next dose given in a cumulative dose fashion. The response to each dose of the test compound was calculated as the difference from the mean of the three baseline measurements.

cGMP-PDE V [2] = experiment: c-GMP-PDE V inhibitory activity; assay type: biochemical, various animal species and man
Procedure: The cGMP-PDE and other PDE isozymes were isolated from cardiovascular tissues (heart and aorta) of various animal species and man by anion-exchange and affinity chromatography as described by Silver et al., Sec. Messeng. Phos. 13:13-25, 1991; PDE activity, in the presence and absence of test compounds was determined essentially as described by Thompson et al., Adv. Cyclic Nucleotide Res. 10:69-92. To determine the potency and selectivity of compounds as PDE inhibitors, compounds are screened for their effect on cyclic nucleotide hydrolysis at 10 μM. […] The IC50 values are calculated from concentration-response curves as described by Tallarida and Murray, Manual of Pharmacologic Calculations with Computer Programs, Procedure 8, Graded Dose-response, pp. 14-19, Springer-Verlag, New York, 1981.

[3] = system: Spontaneously hypertensive rats; experiment: Reversal of nitrate-induced tolerance in nitroglycerin tolerant spontaneously hypertensive rats; assay type: in vivo, rat
Procedure: Spontaneously hypertensive rats (17-25 weeks of age) were made nitroglycerin tolerant by repeated administration of high doses of nitroglycerin (100 mg/kg, s.c., 3 times/day for 3 consecutive days). To confirm tolerance challenge doses of nitroglycerin were administered intravenously at doses ranging from 1-300 μg/kg and the maximum change in mean arterial pressure (MAP) for each dose was recorded. Groups of tolerant rats were pretreated with the compounds of the invention (tolerant pretreated group) or with vehicle (0.05 N NaOH) (tolerant vehicle pretreated group) intravenously 5-10 minutes prior to administration of challenge doses of nitroglycerin. The administration of challenge doses of nitroglycerin to non-tolerant rats (the non-tolerant group) caused a dose-dependent decrease in MAP of between 10 to 40 mm Hg. […] The area under the dose-MAP curve was calculated for the non-tolerant group and for the tolerant vehicle pretreated group and the tolerant pretreated group. The percent reversal of nitrate-induced tolerance was calculated as follows:
Percent Reversal=(AUCtol-pretreated -AUCtol-veh) /(AUCnontol
AUCnontol =the area under the dose-MAP curve for the non-tolerant group.
AUCtol-veh =the area under the dose-MAP curve for the tolerant vehicle pretreated group.
AUCtol-pretreated =the area under the dose-MAP curve for the tolerant pretreated group. […]

[4] = Crenshaw et al., J. Med. Chem. 1976; cited from earlier work
cGMP-PDE V [5] = details: read-out: Km for the hydrolysis of cGMP; isozyme of vascular smooth muscle and renal cells; cited from earlier work
[6] = Rattus norvegicus, 5 min, cumulative dosing, 5 minutes after dose, read-out: % change in mean arterial pressure
[7] = separate experimental runs, first value
[8] = separate experimental runs, second value
[9] = separate experimental runs, third value

SMILES: CCn1ncc2c(NCC3CCCCC3)c3ccccc3nc21 [1(c), 1-ethyl-N-(cyclohexylmethyl)-1H-pyrazolo[3,4-b]quinolin-4-amine]
change in vivo at 10 mg/kg [1, 6]: -15% | IC50 (cGMP-PDE V [2]): 83 nM

SMILES: CCn1ncc2c(NCC3CCCCC3)c3cc(OCC(O)CO)ccc3nc21 (stereo not drawn) [17(b), 1-ethyl-6-(2,3-dihydroxypropoxy)-N-(cyclohexylmethyl)-1H-pyrazolo[3,4-b]quinolin-4-amine]
change in vivo at 10 mg/kg [1, 6]: -6% | IC50 (cGMP-PDE V [2]): 130 nM

SMILES: CCn1ncc2c(NCC3CCCCC3)c3cc(O)ccc3nc21 [Example 8, 1-ethyl-6-hydroxy-N-(cyclohexylmethyl)-1H-pyrazolo[3,4-b]quinolin-4-amine]
% change in mean arterial pressure or ED25, result in words ([1]; 0.3-10 mg base/kg): Inactive | IC50 (cGMP-PDE V [2]): 36 nM

SMILES: CCn1ncc2c(NCC3(O)CCCCC3)c3cc(OC)ccc3nc21 [Example 32, 1-ethyl-6-methoxy-N-[(1-hydroxycyclohexyl)methyl]-1H-pyrazolo[3,4-b]quinolin-4-amine]
Percent Inhibition cGMP-PDE V (cGMP-PDE V [2]; 0.1 μM): 43% | Percent Inhibition cGMP-PDE V (cGMP-PDE V [2]; 1 μM): 79% | Percent Inhibition cGMP-PDE V (cGMP-PDE V [2]; 10 μM): 96%

SMILES: CCn1ncc2c(N[C@@H](C)C3CCCCC3)c3cc([N+](=O)[O-])ccc3nc21 [Example 34, 1-ethyl-6-nitro-N-[S(+)-1-(cyclohexyl)ethyl]-1H-pyrazolo[3,4-b]quinolin-4-amine]
Percent (%) Reversal of Nitroglycerin-induced Tolerance ([3]; 1.0 mg/kg, intravenously 5-10 minutes prior to nitroglycerin challenge): 44% | IC50 (cGMP-PDE V [2]; [7]): 0.22 nM | IC50 (cGMP-PDE V [2]; [8]): 0.16 nM | IC50 (cGMP-PDE V [2]; [9]): 0.08 nM

SMILES: C[C@H](Nc1c2ccccc2nc2c1cnn2Cc1ccccc1)C1CCCCC1 [Example 38, 1-benzyl-N-[S (+)-1(cyclohexyl)ethyl]-1H-pyrazolo[3,4-b]quinolin-4-amine]
Percent Inhibition cGMP-PDE V (cGMP-PDE V [2]; 0.01 μM): 9% | Percent Inhibition cGMP-PDE V (cGMP-PDE V [2]; 0.1 μM): 22% | Percent Inhibition cGMP-PDE V (cGMP-PDE V [2]; 1 μM): 77%

SMILES: CCn1ncc2c(N[C@@H](C)C3CCCCC3)c3ccccc3nc21 [Example 39, 1-ethyl-N-[S(+)-1-(cyclohexyl)ethyl]-1H-pyrazolo[3,4-b]quinolin-4-amine]
IC50 (cGMP-PDE V [2]): 15 nM

SMILES: CCn1ncc2c(NCC3CCCCC3)c3cc([S+](C)[O-])ccc3nc21 (stereo not drawn) [Example 49, 1-ethyl-6-(methylsulfinyl)-N-(cyclohexylmethyl)-1H-pyrazolo[3,4-b]quinolin-4-amine]
IC50 (cGMP-PDE V [2]): 18 nM

SMILES: CCn1ncc2c(N[C@@H](C)C3CCCCC3)c3cc(-n4cccn4)ccc3nc21 [Example 52, 1-ethyl-6-(1-pyrazolyl)-N-[S(+)-1-(cyclohexyl)ethyl]-1H-pyrazolo[3,4-b]quinolin-4-amine]
IC50 (cGMP-PDE V [2]; [7]): 0.2 nM | IC50 (cGMP-PDE V [2]; [8]): 0.27 nM

SMILES: C=Cc1ccc2nc3c(cnn3CC)c(N[C@@H](C)C3CCCCC3)c2c1 [Example 55, 1-ethyl-6-(ethenyl)-N-[S(+)-1(cyclohexyl)ethyl]-1H-pyrazolo[3,4-b]quinolin-4-amine]
Percent Inhibition cGMP-PDE V (cGMP-PDE V [2]; 0.001 μM): 58% | Percent Inhibition cGMP-PDE V (cGMP-PDE V [2]; 0.01 μM): 91% | Percent Inhibition cGMP-PDE V (cGMP-PDE V [2]; 0.1 μM): 96%

SMILES: Cc1nn(C)c2nc3ccccc3c(NCCCNC34CC5CC(CC(C5)C3)C4)c12 [N-(1,3-dimethyl-1H-pyrazolo[3,4-b]quinolin-4-yl)-N'-tricyclo[3.3.1.1^3.7]dec-1-yl-1,3-propane diamine]
activity in the interferon assay [4]: inactive

SMILES: Cc1nn(C)c2nc3ccccc3c(NCc3cccnc3)c12 [N-(3-pyridinylmethyl)]
activity in the interferon assay [4]: inactive

SMILES: Cc1nn(C)c2nc3ccccc3c(NCc3ccccc3N(C)C)c12 [N-[[2-(dimethylamino)phenyl]methyl]-1,3-dimethyl-1H-pyrazolo[3,4-b]quinolin-4-amines]
activity in the interferon assay [4]: inactive

SMILES: Cc1nn(C)c2nc3ccccc3c(NC3CC3)c12 [N-cyclopropyl]
activity in the interferon assay [4]: inactive

SMILES: Cc1nn(C)c2nc3ccccc3c(NC34CC5CC(CC(C5)C3)C4)c12 [N-tricyclo[3.3.1.13,7]dec-1-yl]
activity in the interferon assay [4]: inactive

SMILES: Nc1nc2c(ncn2[C@@H]2O[C@@H]3COP(=O)(O)O[C@H]3[C@H]2O)c(=O)[nH]1 [cGMP, cyclic guanosine monophosphate]
Km (cGMP-PDE V [5]): 1 µM

SMILES: O=[N+]([O-])OCC(CO[N+](=O)[O-])O[N+](=O)[O-] [nitroglycerin, reference compound]
hypotensive response to challenge doses of nitroglycerin, in words ([3]; tolerant vehicle pretreated group): significant reduction of the hypotensive response

The next lines start with results.

IC50 (cGMP-PDE V [2]): 120 nM
SMILES: CCn1ncc2c(NCC3CCC(CO)CC3)c3ccccc3nc21 (stereo not drawn) [6(b), 1-ethyl-N-[(4-hydroxymethylcyclohexyl)methyl]-1H-pyrazolo[3,4-b]quinolin-4-amine]
change in vivo at 10 mg/kg [1, 6]: -23%

IC50 (cGMP-PDE V [2]): 33 nM
SMILES: CCn1ncc2c(NCC3CCCCC3)c3cc(OC)ccc3nc21 [7(d), 1-ethyl-6-methoxy-N-(cyclohexylmethyl)-1H-pyrazolo[3,4-b]quinolin-4-amine]
change in vivo at 3 mg/kg [1, 6]: -16%

IC50 (cGMP-PDE V [2]): 1.5 nM
SMILES: CCn1ncc2c(NCC3CCCCC3)c3cc([N+](=O)[O-])ccc3nc21 [15(c), 1-ethyl-6-nitro-N-(cyclohexylmethyl) -1H-pyrazolo[3,4-b]quinolin-4-amine]
change in vivo at 3 mg/kg [1, 6]: -18%

IC50 (cGMP-PDE V [2]): 38 nM
SMILES: CCn1ncc2c(NCC3CCCCC3)c3ccc(C(=O)O)cc3nc21 [23(c), 1-ethyl-7-carboxy-N-(cyclohexylmethyl)-1H-pyrazolo[3,4-b]quinolin-4-amine]
change in vivo at 3 mg/kg [1, 6]: -7%

IC50 (cGMP-PDE V [2]; [7]): 8.3 nM | IC50 (cGMP-PDE V [2]; [8]): 11.5 nM
SMILES: CCn1ncc2c(N[C@@H](C)C3CCCCC3)c3cc(S(C)(=O)=O)ccc3nc21 [37(d), 1-ethyl-6-(methylsulfonyl)-N-[S(+)-1-(cyclohexyl)ethyl]-1H-pyrazolo[3,4-b]quinolin-4-amine]
change in vivo at 3 mg/kg [1, 6]: -15% | change in vivo at 10 mg/kg [1, 6]: -18%

IC50 (cGMP-PDE V [2]): 42 nM
SMILES: CCn1ncc2c(NCC3CCCCC3)c3cc(OCC(=O)O)ccc3nc21 [Example 13, 1-ethyl-6-(carboxymethoxy)-N-(cyclohexymethyl)-1H-pyrazolo[3,4-b]quinolin-4-amine]
change in vivo at 1 mg/kg ([1]; Rattus norvegicus, 5 min, 1 mg/kg, cumulative dosing, 5 minutes after dose, read-out: % change in mean arterial pressure): -10%

IC50 (cGMP-PDE V [2]): 91 nM
SMILES: CCn1ncc2c(NCC3CCCCC3)c3cc(OCC4CO4)ccc3nc21 (stereo not drawn) [Example 21, 1-ethyl-6-(2,3-epoxypropoxy)-N-(cyclohexylmethyl)-1H-pyrazolo[3,4-b]quinolin-4amine]
change in vivo at 10 mg/kg [1, 6]: -12%

IC50 (cGMP-PDE V [2]): 74 nM
SMILES: CCn1ncc2c(NCC3CCCCC3)c3cc(OC(C)C(=O)O)ccc3nc21 (stereo not drawn) [Example 22, 1-ethyl-6-(1-carboxyethoxy)-N-(cyclohexylmethyl)-1H-pyrazolo[3,4-b]quinolin-4-amine]
change in vivo at 10 mg/kg [1, 6]: -7%

IC50 (cGMP-PDE V [2]): 92 nM
SMILES: CCn1ncc2c(NCC3CCCCC3)c3cc(OCCN4CCOCC4)ccc3nc21 [Example 33, 1-ethyl-6-[2-(4-morpholinyl)ethoxy]-N-(cyclohexylmethyl)-1H-pyrazolo[3,4-b]quinolin-4-amine]

IC50 (cGMP-PDE V [2]; [7]): 8.6 nM | IC50 (cGMP-PDE V [2]; [8]): 9.5 nM | IC50 (cGMP-PDE V [2]; [9]): 9.5 nM
SMILES: CCn1ncc2c(N[C@H](C)C3CCCCC3)c3cc([N+](=O)[O-])ccc3nc21 [Example 35, 1-ethyl-6-nitro-N-[R (-)-1(cyclohexyl)ethyl]-1H-pyrazolo[3,4-b]quinolin-4amine]

IC50 (cGMP-PDE V [2]): 27 nM
SMILES: CCn1ncc2c(N[C@@H](C)C3CCCCC3)c3cc(-n4ccnc4)ccc3nc21 [Example 43, 1-ethyl-6-(1-imidazolyl)-N-[S(+)-1-(cyclohexyl)ethyl]-1H-pyrazolo[3,4-b]quinolin-4-amine]

IC50 (cGMP-PDE V [2]): 0.37 nM
SMILES: CCn1ncc2c(N[C@@H](C)C3CCCCC3)c3cc(Br)ccc3nc21 [Example 46, 1-ethyl-6-bromo-N-[S(+)-1-(cyclohexyl)ethyl]-1H-pyrazolo[3,4-b]quinolin-4-amine]

IC50 (cGMP-PDE V [2]): 9.1 nM
SMILES: CCn1ncc2c(N[C@@H](C)C3CCCCC3)c3cc(-n4cc(C)cn4)ccc3nc21 [Example 50, 1-ethyl-6-(4-methyl-1-pyrazolyl)-N-[S(+)-1-(cyclohexyl)ethyl]-1H-pyrazolo[3,4-b]quinolin-4-amine]

IC50 (cGMP-PDE V [2]; [7]): 5.9 nM | IC50 (cGMP-PDE V [2]; [8]): 8.8 nM
SMILES: CC[C@H](Nc1c2cc([N+](=O)[O-])ccc2nc2c1cnn2CC)C1CCCCC1 [Example 54, 1-ethyl-6-nitro-N-[S(+)-1-(cyclohexyl)propyl]-1H-pyrazolo[3,4-b]quinolin-4-amine]
